Results from patent US20240391948A1, “NOVEL COMPOUND THAT INHIBITS TNF-ALPHA GENERATION AND INFLAMMASOME ACTIVITY AND PREPARATION METHOD THEREFOR” (SHAPERON INC., priority 2021, published 2024).

What was measured:
Type in all cases: cell-based
[1] = system: U937 cells (human monocytic cell line); test: Pam2CSK4-induced TNF-α secretion inhibition in PMA-differentiated U937 cells; settings: U-937, U937 cells differentiated with PMA, read-out: TNF-α production inhibition grade (IC50)
How it was run: (§1)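 Inhibition is given as IC50 (μM) in A-D bands, using distinct thresholds for TNF-α and for IL-1β. Secretion followed Pam2CSK4 stimulation (TNF-α) or BzATP stimulation (IL-1β) of compound-pretreated, PMA-differentiated U937 macrophages.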

[2] = system: J774A.1 (Mouse BALB/c monocyte macrophage cell line) cells; test: LPS+ATP-induced IL-1β secretion inhibition in J774A.1 cells; settings: J774.A1, 1 μM compound, graded compared to taurodeoxycholic acid (positive control), read-out: IL-1β production inhibition grade
How it was run: (§2)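 Grades (A >100%, B 50–100%, C 20–50%, D <20%) express cytokine suppression by 1 μM compound relative to taurodeoxycholic acid. LPS-induced TNF-α and LPS+ATP-induced IL-1β secretion were measured in murine J774A.1 macrophage cells.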

[3] = system: J774A.1 (Mouse BALB/c monocyte macrophage cell line) cells; test: LPS-induced TNF-α secretion inhibition in J774A.1 cells; settings: J774.A1, 1 μM compound, graded compared to taurodeoxycholic acid (positive control), read-out: TNF-α production inhibition grade
How it was run: as §2

[4] = system: U937 cells (human monocytic cell line); test: BzATP-induced IL-1β secretion inhibition in PMA-differentiated U937 cells; settings: U-937, U937 cells differentiated with PMA, read-out: IL-1β production inhibition grade (IC50)
How it was run: as §1

| Compound | IC50 [1] [nM] | inhibition at 1 µM [2] [%] | inhibition at 1 µM [3] [%] | IC50 [4] [nM] |
| --- | --- | --- | --- | --- |
| CC[C@H]1[C@@H](O)[C@@H]2[C@H](CC[C@]3(C)[C@@H]([C@H](C)CCC(=O)N[C@@H](CS(=O)(=O)O)C(C)C)CC[C@@H]23)[C@@]2(C)CC[C@@H](O)C[C@@H]12 [NC40017] | 500 to 1000 | 20 to 50 | < 20 | ≥ 200 |
| C[C@H](CCC(=O)N1CCC[C@@H]1CS(=O)(=O)O)[C@H]1CC[C@H]2[C@@H]3CC[C@@H]4C[C@H](O)CC[C@]4(C)[C@H]3C[C@H](O)[C@]12C [NC10036] | ≥ 2000 | > 100 | < 20 | 100 to 200 |
| C[C@H](CCC(=O)N1CCC[C@@H]1CS(=O)(=O)O)[C@H]1CC[C@H]2[C@@H]3CC[C@@H]4CC(=O)CC[C@]4(C)[C@H]3CC[C@]12C [NC30020] | ≥ 2000 | 20 to 50 | < 20 | ≥ 200 |
| CC[C@H]1[C@@H](O)[C@@H]2[C@H](CC[C@]3(C)[C@@H]([C@H](C)CCC(=O)N4CCC[C@H]4CS(=O)(=O)O)CC[C@@H]23)[C@@]2(C)CC[C@@H](O)C[C@@H]12 [NC40021] | 500 to 1000 | 50 to 100 | < 20 | ≥ 200 |
| C[C@H](CCC(=O)NC(C)(C)CS(=O)(=O)O)[C@H]1CC[C@H]2[C@@H]3CC[C@@H]4C[C@H](O)CC[C@]4(C)[C@H]3CC[C@]12C [NC10064] | < 500 | < 20 | < 20 | < 50 |
| C[C@H](CCC(=O)NC1(CS(=O)(=O)O)CC1)[C@H]1CC[C@H]2[C@@H]3CC[C@@H]4C[C@H](O)CC[C@]4(C)[C@H]3CC[C@]12C [NC10088] | < 500 | < 20 | 20 to 50 | ≥ 200 |
| CC[C@H]1[C@@H](O)[C@@H]2[C@H](CC[C@]3(C)[C@@H]([C@H](C)CCC(=O)NC[C@H](C)S(=O)(=O)O)CC[C@@H]23)[C@@]2(C)CC[C@@H](O)C[C@@H]12 [NC40022] | 500 to 1000 | 20 to 50 | 20 to 50 | ≥ 200 |
| CC(C)C[C@@H](CS(=O)(=O)O)NC(=O)CC[C@@H](C)[C@H]1CC[C@H]2[C@@H]3CC[C@@H]4CC(=O)CC[C@]4(C)[C@H]3CC[C@]12C [NC30030] | 500 to 1000 | 20 to 50 | < 20 | ≥ 200 |
| C[C@H](CCC(=O)N1CCC(S(=O)(=O)O)CC1)[C@H]1CC[C@H]2[C@@H]3CC[C@@H]4C[C@H](O)CC[C@]4(C)[C@H]3CC[C@]12C [NC10062] | 500 to 1000 | > 100 | < 20 | < 50 |
| C[C@H](CCC(=O)N1CCC[C@H]1CS(=O)(=O)O)[C@H]1CC[C@H]2[C@@H]3[C@H](O)C[C@@H]4C[C@H](O)CC[C@]4(C)[C@H]3C[C@H](O)[C@]12C [NC20021] | 1000 to 2000 | < 20 | < 20 | 50 to 100 |
| C[C@H](CCC(=O)N(CCN(C)C)CCS(=O)(=O)O)[C@H]1CC[C@H]2[C@@H]3CC[C@@H]4C[C@H](O)CC[C@]4(C)[C@H]3CC[C@]12C [NC10091] | 500 to 1000 | > 100 | > 100 | < 50 |
| C[C@H](CCC(=O)NCCCO)[C@H]1CC[C@H]2[C@@H]3CC[C@@H]4C[C@H](O)CC[C@]4(C)[C@H]3CC[C@]12C [NC10054] | 1000 to 2000 | 50 to 100 | < 20 | 50 to 100 |
| C[C@H](CCC(=O)N1CCC[C@@H](S(=O)(=O)O)C1)[C@H]1CC[C@H]2[C@@H]3CC[C@@H]4CC(=O)CC[C@]4(C)[C@H]3CC[C@]12C [NC30010] | 500 to 1000 | 50 to 100 | > 100 | < 50 |
| CC[C@H]1[C@@H](O)[C@@H]2[C@H](CC[C@]3(C)[C@@H]([C@H](C)CCC(=O)NC4(CS(=O)(=O)O)CC4)CC[C@@H]23)[C@@]2(C)CC[C@@H](O)C[C@@H]12 [NC40032] | 1000 to 2000 | < 20 | < 20 | ≥ 200 |
| C[C@H](CS(=O)(=O)O)NC(=O)CC[C@@H](C)[C@H]1CC[C@H]2[C@@H]3CC[C@@H]4C[C@H](O)CC[C@]4(C)[C@H]3CC[C@]12C [NC10085] | ≥ 2000 | < 20 | < 20 | ≥ 200 |
| CC[C@H]1[C@@H](O)[C@@H]2[C@H](C[C@H](O)[C@]3(C)[C@@H]([C@H](C)CCC(=O)N[C@H](CS(=O)(=O)O)C(C)C)CC[C@@H]23)[C@@]2(C)CC[C@@H](O)C[C@@H]12 [NC50016] | 500 to 1000 | > 100 | < 20 | 50 to 100 |
| C[C@H](CCC(=O)N[C@@H](C)CS(=O)(=O)O)[C@H]1CC[C@H]2[C@@H]3CC[C@@H]4CC(=O)CC[C@]4(C)[C@H]3CC[C@]12C [NC30028] | 500 to 1000 | < 20 | < 20 | ≥ 200 |
| CC[C@H]1[C@@H](O)[C@@H]2[C@H](C[C@H](O)[C@]3(C)[C@@H]([C@H](C)CCC(=O)N[C@@H](CC(C)C)CS(=O)(=O)O)CC[C@@H]23)[C@@]2(C)CC[C@@H](O)C[C@@H]12 [NC50030] | ≥ 2000 | 50 to 100 | < 20 | 100 to 200 |
| CC[C@H]1[C@@H](O)[C@@H]2[C@H](CC[C@]3(C)[C@@H]([C@H](C)CCC(=O)N(CCO)CCS(=O)(=O)O)CC[C@@H]23)[C@@]2(C)CC[C@@H](O)C[C@@H]12 [NC40006] | 1000 to 2000 | 50 to 100 | 20 to 50 | ≥ 200 |
| CC[C@H]1[C@@H](O)[C@@H]2[C@H](CC[C@]3(C)[C@@H]([C@H](C)CCC(=O)N[C@H](Cc4ccccc4)CS(=O)(=O)O)CC[C@@H]23)[C@@]2(C)CC[C@@H](O)C[C@@H]12 [NC40015] | 500 to 1000 | > 100 | < 20 | 50 to 100 |
| C[C@H](CCC(=O)NCCOS(=O)(=O)O)[C@H]1CC[C@H]2[C@@H]3CC[C@@H]4C[C@H](O)CC[C@]4(C)[C@H]3CC[C@]12C [NC10013] | 500 to 1000 | 50 to 100 | < 20 | 50 to 100 |
| C[C@H](CCC(=O)NC[C@@H](C)S(=O)(=O)O)[C@H]1CC[C@H]2[C@@H]3CC[C@@H]4C[C@H](O)CC[C@]4(C)[C@H]3CC[C@]12C [NC10079] | 500 to 1000 | > 100 | 20 to 50 | < 50 |
| C[C@H](CCC(=O)N1CCC[C@H](S(=O)(=O)O)C1)[C@H]1CC[C@H]2[C@@H]3CC[C@@H]4C[C@H](O)CC[C@]4(C)[C@H]3C[C@H](O)[C@]12C [NC10026] | 1000 to 2000 | > 100 | < 20 | < 50 |
| C[C@H](CCC(=O)NCCCS(=O)(=O)O)[C@H]1CC[C@H]2[C@@H]3CC[C@@H]4C[C@H](O)CC[C@]4(C)[C@H]3C[C@H](O)[C@]12C [NC10002] | < 500 | > 100 | > 100 | < 50 |
| C[C@H](CCC(=O)N[C@@H]1CCCC[C@@H]1S(=O)(=O)O)[C@H]1CC[C@H]2[C@@H]3CC[C@@H]4C[C@H](O)CC[C@]4(C)[C@H]3C[C@H](O)[C@]12C [NC10041] | 500 to 1000 | < 20 | < 20 | ≥ 200 |
| CC(C)C[C@H](CS(=O)(=O)O)NC(=O)CC[C@@H](C)[C@H]1CC[C@H]2[C@@H]3CC[C@@H]4C[C@H](O)CC[C@]4(C)[C@H]3CC[C@]12C [NC10087] | 500 to 1000 | > 100 | > 100 | < 50 |
| C[C@H](CCC(=O)N1CC(S(=O)(=O)O)C1)[C@H]1CC[C@H]2[C@@H]3CC[C@@H]4CC(=O)CC[C@]4(C)[C@H]3CC[C@]12C [NC30012] | ≥ 2000 | 20 to 50 | < 20 | ≥ 200 |
| C[C@H](CCC(=O)NC[C@@H](C)S(=O)(=O)O)[C@H]1CC[C@H]2[C@@H]3CC[C@@H]4CC(=O)CC[C@]4(C)[C@H]3CC[C@]12C [NC30023] | ≥ 2000 | 50 to 100 | > 100 | ≥ 200 |
| CC[C@H]1[C@@H](O)[C@@H]2[C@H](CC[C@]3(C)[C@@H]([C@H](C)CCC(=O)N4CC[C@@H](S(=O)(=O)O)C4)CC[C@@H]23)[C@@]2(C)CC[C@@H](O)C[C@@H]12 [NC40034] | < 500 | > 100 | 20 to 50 | < 50 |
